ChEMBL document CHEMBL2406968, “Heteroaryl sodium channel inhibitors” (ACS Med Chem Lett, 2013)

How the values were obtained:
[1] = target: Sodium channel protein type 11 subunit alpha (Homo sapiens) (UniProt Q9UI33); test: Inhibition of Nav1.9 (unknown origin) expressed in HEK293 cells by automated patch clamp assay; format: cell-based
[2] = target: Sodium channel protein type 9 subunit alpha (Homo sapiens) (UniProt Q15858); test: Inhibition of Nav1.7 (unknown origin) expressed in HEK293 cells by automated patch clamp assay; format: cell-based
Sodium channel protein type 9 subunit alpha (Homo sapiens), sequence (Q15858 whole entry, looked up): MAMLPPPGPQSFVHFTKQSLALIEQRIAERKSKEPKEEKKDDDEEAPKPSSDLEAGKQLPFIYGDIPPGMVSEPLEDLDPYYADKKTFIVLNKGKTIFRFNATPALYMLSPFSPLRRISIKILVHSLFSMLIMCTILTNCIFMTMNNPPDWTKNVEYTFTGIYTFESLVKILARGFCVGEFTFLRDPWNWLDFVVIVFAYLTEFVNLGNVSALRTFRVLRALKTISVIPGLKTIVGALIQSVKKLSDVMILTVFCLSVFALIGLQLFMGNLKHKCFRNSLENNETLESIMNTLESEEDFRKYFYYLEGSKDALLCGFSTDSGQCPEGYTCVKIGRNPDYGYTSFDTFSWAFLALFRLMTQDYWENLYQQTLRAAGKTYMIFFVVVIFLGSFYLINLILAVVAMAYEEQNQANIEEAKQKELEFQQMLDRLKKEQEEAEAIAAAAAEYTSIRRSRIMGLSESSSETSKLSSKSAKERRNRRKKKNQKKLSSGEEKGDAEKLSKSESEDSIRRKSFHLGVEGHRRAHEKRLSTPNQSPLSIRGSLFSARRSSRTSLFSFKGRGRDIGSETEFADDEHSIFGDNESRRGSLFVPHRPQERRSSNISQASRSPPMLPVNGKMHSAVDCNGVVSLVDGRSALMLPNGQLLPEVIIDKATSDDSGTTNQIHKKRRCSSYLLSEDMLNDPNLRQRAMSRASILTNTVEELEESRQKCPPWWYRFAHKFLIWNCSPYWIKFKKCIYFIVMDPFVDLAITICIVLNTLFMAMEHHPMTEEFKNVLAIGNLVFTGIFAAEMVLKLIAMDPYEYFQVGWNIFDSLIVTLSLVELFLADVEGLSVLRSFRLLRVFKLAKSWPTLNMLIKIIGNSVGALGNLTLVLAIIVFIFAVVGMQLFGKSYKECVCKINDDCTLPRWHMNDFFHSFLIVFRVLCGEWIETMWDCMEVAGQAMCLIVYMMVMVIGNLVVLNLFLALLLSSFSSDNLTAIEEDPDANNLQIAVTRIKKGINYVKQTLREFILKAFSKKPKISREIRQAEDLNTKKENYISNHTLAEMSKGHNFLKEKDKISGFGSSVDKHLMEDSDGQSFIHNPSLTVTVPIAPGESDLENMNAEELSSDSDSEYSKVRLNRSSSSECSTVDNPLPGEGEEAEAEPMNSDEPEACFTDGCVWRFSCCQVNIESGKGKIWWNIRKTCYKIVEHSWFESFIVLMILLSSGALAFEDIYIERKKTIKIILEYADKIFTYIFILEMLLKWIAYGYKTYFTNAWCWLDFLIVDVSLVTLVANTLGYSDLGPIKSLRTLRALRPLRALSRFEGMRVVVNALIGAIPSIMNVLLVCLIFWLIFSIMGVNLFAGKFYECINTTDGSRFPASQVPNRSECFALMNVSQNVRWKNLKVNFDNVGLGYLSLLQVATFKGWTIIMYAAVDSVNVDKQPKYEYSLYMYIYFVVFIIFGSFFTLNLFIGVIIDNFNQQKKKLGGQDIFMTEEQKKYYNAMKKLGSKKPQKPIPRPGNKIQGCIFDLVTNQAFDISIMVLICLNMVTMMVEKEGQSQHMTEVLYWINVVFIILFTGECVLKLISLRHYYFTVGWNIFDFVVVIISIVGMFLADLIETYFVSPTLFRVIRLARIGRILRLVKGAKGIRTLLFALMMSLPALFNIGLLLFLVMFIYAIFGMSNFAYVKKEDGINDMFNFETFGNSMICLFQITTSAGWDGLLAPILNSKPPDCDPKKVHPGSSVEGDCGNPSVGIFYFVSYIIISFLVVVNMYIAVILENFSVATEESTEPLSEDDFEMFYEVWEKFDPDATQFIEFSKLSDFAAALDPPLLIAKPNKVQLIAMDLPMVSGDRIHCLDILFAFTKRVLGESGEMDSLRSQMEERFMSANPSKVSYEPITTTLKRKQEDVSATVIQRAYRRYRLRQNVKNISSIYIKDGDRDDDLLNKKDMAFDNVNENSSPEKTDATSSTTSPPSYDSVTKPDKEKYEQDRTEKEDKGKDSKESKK

Sodium channel protein type 11 subunit alpha (Homo sapiens), sequence (Q9UI33 whole entry): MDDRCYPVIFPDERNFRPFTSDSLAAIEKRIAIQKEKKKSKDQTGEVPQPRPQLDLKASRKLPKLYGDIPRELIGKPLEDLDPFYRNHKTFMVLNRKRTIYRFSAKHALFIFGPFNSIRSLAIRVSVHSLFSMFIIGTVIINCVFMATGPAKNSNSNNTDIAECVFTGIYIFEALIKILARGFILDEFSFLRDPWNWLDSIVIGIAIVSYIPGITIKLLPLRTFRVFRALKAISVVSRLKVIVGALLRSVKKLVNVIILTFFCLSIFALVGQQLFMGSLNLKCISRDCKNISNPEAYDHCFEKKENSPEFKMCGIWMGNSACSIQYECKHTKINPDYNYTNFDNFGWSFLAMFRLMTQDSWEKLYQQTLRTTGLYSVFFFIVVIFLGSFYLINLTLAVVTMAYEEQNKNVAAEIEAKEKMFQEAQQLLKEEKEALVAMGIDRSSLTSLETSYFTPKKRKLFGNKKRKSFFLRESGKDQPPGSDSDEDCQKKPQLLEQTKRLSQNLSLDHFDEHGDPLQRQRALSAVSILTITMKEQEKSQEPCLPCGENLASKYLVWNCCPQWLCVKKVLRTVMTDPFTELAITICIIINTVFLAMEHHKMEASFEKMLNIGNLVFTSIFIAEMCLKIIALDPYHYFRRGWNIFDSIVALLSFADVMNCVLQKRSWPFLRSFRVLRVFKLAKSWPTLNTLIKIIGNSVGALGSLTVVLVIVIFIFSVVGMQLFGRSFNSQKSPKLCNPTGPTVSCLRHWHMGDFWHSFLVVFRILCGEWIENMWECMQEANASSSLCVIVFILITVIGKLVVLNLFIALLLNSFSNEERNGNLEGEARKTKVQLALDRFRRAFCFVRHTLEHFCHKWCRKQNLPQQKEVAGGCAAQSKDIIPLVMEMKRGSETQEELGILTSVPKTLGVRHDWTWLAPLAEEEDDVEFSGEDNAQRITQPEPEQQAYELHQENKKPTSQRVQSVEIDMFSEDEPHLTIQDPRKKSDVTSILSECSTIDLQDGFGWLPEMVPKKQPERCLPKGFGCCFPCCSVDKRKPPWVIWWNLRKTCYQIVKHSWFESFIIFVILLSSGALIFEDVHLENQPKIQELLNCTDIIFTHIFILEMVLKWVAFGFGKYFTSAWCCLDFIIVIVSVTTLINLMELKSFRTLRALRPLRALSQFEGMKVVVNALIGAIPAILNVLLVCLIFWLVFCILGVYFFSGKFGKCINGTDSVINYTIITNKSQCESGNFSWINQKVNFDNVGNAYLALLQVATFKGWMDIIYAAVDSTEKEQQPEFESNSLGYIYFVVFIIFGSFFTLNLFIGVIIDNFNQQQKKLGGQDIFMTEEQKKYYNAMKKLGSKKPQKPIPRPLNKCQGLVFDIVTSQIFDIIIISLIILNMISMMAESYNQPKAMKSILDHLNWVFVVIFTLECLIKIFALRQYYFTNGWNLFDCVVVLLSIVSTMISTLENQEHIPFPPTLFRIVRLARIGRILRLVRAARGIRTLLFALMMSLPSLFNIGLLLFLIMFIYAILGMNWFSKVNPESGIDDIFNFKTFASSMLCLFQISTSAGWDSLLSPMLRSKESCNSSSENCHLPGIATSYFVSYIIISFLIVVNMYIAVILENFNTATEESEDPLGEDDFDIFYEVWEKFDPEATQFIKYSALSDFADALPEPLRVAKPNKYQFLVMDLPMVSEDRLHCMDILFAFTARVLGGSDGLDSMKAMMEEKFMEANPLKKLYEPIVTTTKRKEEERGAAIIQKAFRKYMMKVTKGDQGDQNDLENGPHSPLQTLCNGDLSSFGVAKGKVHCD

Row | SMILES | INH [1] [µM] | INH [2] [µM]
1 | Cn1cc(-c2ccc(C(F)(F)F)cc2C2=CCNCC2)c2ccc(S(=O)(=O)Nc3ncns3)cc21 | > 10 | 0.0425
2 | Cn1cc(-c2ccc(C(F)(F)F)cc2-c2ccnn2C2CNC2)c2ccc(S(=O)(=O)Nc3ncns3)cc21 | > 10 | 0.263
3 | Cn1nccc1-c1cc(C(F)(F)F)ccc1-c1cn(C)c2cc(S(=O)(=O)Nc3ncns3)ccc12 | > 10 | 0.147
4 | Cn1cc(-c2ccc(C(F)(F)F)cc2-c2ccncc2)c2ccc(S(=O)(=O)Nc3ncns3)cc21 | > 10 | 0.05
5 | Cn1nccc1-c1cc(Cl)ccc1-c1cn(C)c2cc(S(=O)(=O)Nc3ncns3)ccc12 | > 10 | 0.253
6 | Cn1cc(-c2ccc(C(F)(F)F)cc2-c2ccn[nH]2)c2ccc(S(=O)(=O)Nc3ncns3)cc21 | > 10 | 0.0375
7 | Cn1cc(-c2cccc3c2CCNC3)c2ccc(S(=O)(=O)Nc3ncns3)cc21 | > 10 | 0.292
8 | Cn1cc(-c2cccc3ccccc23)c2ccc(S(=O)(=O)Nc3ncns3)cc21 | > 10 | 0.306
9 | CC(=O)n1cc(-c2ccc(C(F)(F)F)cc2-c2ccnn2C)c2ccc(S(=O)(=O)Nc3ncns3)cc21 | > 10 | 0.0505
